Assays:
[1] = test system: non-small cell lung cancer cell line H460; test: In vitro human cancer cell line cytotoxicity (proliferation) assay in H460, CellTiter-Glo, 72 hours; format: cell-based; conditions: H460 cells, DMSO condition (no AKR1C3 inhibitor), read-out: CTG H460: Avg IC50 (nM) [Assay Condition: DMSO]
Summary of the method: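 IC50s in nM come from CellTiter-Glo viability read after 72 h of compound exposure. Compounds went in from 10 mM DMSO stocks onto H460 cells, which had been plated at 3×10^3 per well and grown 24 h beforehand at 37 °C, 5% CO2.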

[2] = test system: non-small cell lung cancer cell line H460; test: H460 proliferation assay in the presence of 3 uM ASP9521 (AKR1C3 specific inhibitor); format: cell-based, human; conditions: H460 cells, CellTiter-Glo, 72 hours, in the presence of 3 uM ASP9521 added 4 hours prior to compounds; read-out: CTG H460: Avg IC50 (nM) [Assay Condition: ASP9521]
Summary of the method: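 AKR1C3 blocked with 3 uM ASP9521 given 4 h ahead of test compounds. H460 cells, plated 24 h earlier, were then treated for 72 h at 37 °C in 5% CO2. CellTiter-Glo luminescence gave viability.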

Compound	IC50 ([1]; Homo sapiens, NCI-H460, 72 h)	IC50 [2]	IC50 [1]
O=[N+]([O-])c1ccc2c(c1Oc1cccc(-c3ccc(F)cc3)c1)CC[C@@H]2OP(=O)(N1CC1)N1CC1 [Example 298]	< 10 nM	1690 nM	–
O=[N+]([O-])c1cc2c(cc1Oc1ccc(-c3ccccc3)nc1)[C@@H](OP(=O)(N1CC1)N1CC1)CC2 [Example 527]	–	1090 nM	< 10 nM
O=C(c1cccc(Oc2c([N+](=O)[O-])ccc3c2CCC3OP(=O)(N2CC2)N2CC2)c1)N1CCC(F)(F)CC1 (stereo not drawn) [Example 104]	–	180 nM	< 10 nM
CC(C)Oc1cccc(Oc2cc3cc(COP(=O)(N4CC4)N4CC4)oc3cc2[N+](=O)[O-])c1 [Example 547]	–	1260 nM	< 10 nM
CC(OP(=O)(N1CC1)N1CC1)c1ccc([N+](=O)[O-])c(COc2ccncc2)c1 (stereo not drawn) [Example 5]	≥ 100 nM	> 10000 nM	–
O=C(NC1CC1)c1ccc(Oc2cc3c(cc2[N+](=O)[O-])CCC3OP(=O)(N2CC2)N2CC2)cc1 (single isomer, unassigned) [Example 172]	10 to 50 nM	4900 nM	–
Cc1cnn(-c2cccc(Oc3c([N+](=O)[O-])ccc4c3CC[C@@H]4OP(=O)(N3CC3)N3CC3)c2)c1 [Example 429]	< 10 nM	1960 nM	–
O=[N+]([O-])c1ccc2c(c1Oc1ccc(O)c(-c3ncc(F)cn3)c1)CCC2OP(=O)(N1CC1)N1CC1 (stereo not drawn) [Example 338]	–	5560 nM	10 to 50 nM
Cn1cc(-c2ccc(Oc3c([N+](=O)[O-])ccc4c3CCC4OP(=O)(N3CC3)N3CC3)cc2)ccc1=O (stereo not drawn) [Example 61]	–	1010 nM	10 to 50 nM
CCC1CN1P(=O)(OCc1ccc([N+](=O)[O-])c(Oc2cccc(C(=O)N(C)C)c2)c1)N1CC1CC (stereo not drawn) [Example 10]	< 10 nM	271 nM	–
O=C1c2cc(Oc3c([N+](=O)[O-])ccc4c3CC[C@@H]4OP(=O)(N3CC3)N3CC3)ccc2CN1C1CC1 (single isomer, unassigned) [Example 39]	< 10 nM	561 nM	–
CC(C)c1cc(Oc2c([N+](=O)[O-])ccc3c2CCC3OP(=O)(N2CC2)N2CC2)ccc1F (stereo not drawn) [Example 332]	–	1960 nM	< 10 nM
O=C(c1cccc(Oc2c([N+](=O)[O-])ccc3c2CCC3OP(=O)(N2CC2)N2CC2)c1)N1CCCC1 (stereo not drawn) [Example 100]	–	618 nM	< 10 nM
O=[N+]([O-])c1cc2c(cc1Oc1cccc(-c3ccccc3)c1)C(OP(=O)(N1CC1)N1CC1)CC2 (single isomer, unassigned) [Example 169]	–	766 nM	< 10 nM
O=[N+]([O-])c1ccc2c(c1Oc1cccc(OC3CCC3)c1)CC[C@H]2OP(=O)(N1CC1)N1CC1 [Example 464]	–	1390 nM	< 10 nM
